From patent publication US9896659B2, “Methods, kits, and compositions for stem cell self-renewal” (STOWERS INSTITUTE FOR MEDICAL RESEARCH, priority 2011, dated 2018)

Experiments:
[1] = tested on: Lin^−, CD34^+, CD38^− cells; experiment: Long-term ex vivo culture of human umbilical cord blood MNCs, Lin^− CD34^+ CD38^− cells by flow cytometry; type: cell-based; settings: 6 weeks culture in STL media; 500 nM 5-Aza-2′-deoxycytidine or 1 μM SR1; relative to STL base media
Experimental: Cells were cultured in STL media, which consists of the following: StemSpan SFEM media (Stem Cell Technologies, Vancouver, Canada) supplemented with 10 μg/ml heparin (Sigma, St. Louis, Mo.), 0.5× Penicillin/Streptomycin (Sigma, St. Louis, Mo.), 10 ng/ml recombinant human (rh) SCF, 20 ng/ml rh-Tpo (Biovision, Inc., Mountain View, Calif.), and 2 mM lithium chloride (LiCl).
Mononuclear cells (MNCs) were isolated from human umbilical cord blood (UCB) and cultured in STL media (activating both Wnt/β-catenin and PI3K/Akt signaling), STL+StemRegenin1 (SR1), or STL+DNMT inhibitor (DNMTi) and analyzed by flow cytometry. […] 1 μM SR1 (Cellagen Technologies, San Diego, Calif.) or 500 nM of DNMTi (5-Aza-2′-deoxycytidine, A3656, Sigma, St. Louis, Mo.) was added where indicated. DNMTi was prepared fresh in DMSO and added from the start of the culture. 24 hours later, about 75% of media was changed using fresh DNMT inhibitor. 60 hours after culture began, no additional DNMT inhibitor was added during media changes.

[2] = tested on: NSG recipients; experiment: Repopulation of NSG recipients by cultured human UCB cells; type: in vivo; settings: STL media + 15 nM Decitabine, brief exposure; 12 weeks post-secondary transplant
Experimental: 600 HSCs (lineage negative, CD34^+, CD38^− cells) were sorted from human UCB and transplanted into sub-lethally irradiated (3.25 Gy) NSG recipients or cultured for 2 weeks in STL media prior to transplantation. MNCs containing 600 HSCs were also cultured equivalently and transplanted. The uncultured MNC group is not shown due to morbidity of transplant recipients.
MNCs were isolated from human UCB and cultured in STL media or STL media with the DNA methyltransferase inhibitor (DNMTi), Decitabine, added at the concentration of 15 nM. DNMTi was prepared fresh in DMSO and added 12 hours after the start of the culture. Media containing Decitabine was replaced with freshly prepared media every 24 hours two more times. 72 hours after adding Decitabine initially, Decitabine was removed from the culture.
For the transplant experiments, MNCs isolated from human UCB were cultured in media activating the PI3K/Akt pathway (ST media), ST media with StemRegenin1 (SR1), media activating both the PI3K/Akt and Wnt/β-catenin pathways (STL media), or STL media+DNMTi for 14 days. The cultured progeny of 2×10^5 MNCs per recipient were transplanted into sub-lethally irradiated (3.25 Gy) NSG recipients. […] 12 weeks post-secondary transplant, human donor cells repopulation was determined (FIG. 36B).

[3] = tested on: LSK Flk2^− cells; experiment: 10-day culture of bone marrow MNCs with PI3K inhibitor, CHIR99021 or without insulin, expansion of LSK Flk2^− cells; type: cell-based, mouse
[4] = tested on: LSK Flk2^− cells; experiment: Ex vivo culture of sorted LSK Flk2^− cells with GSK-3β and PTEN inhibitors, expansion by FACS; type: cell-based, mouse
Experimental: LSK or LSK Flk2^− cells were sorted into 96-well U-bottom tissue culture plates at 100 cells/well with 200 μl media/well. Cells were incubated at 37° C., 5% O2, 5% CO2 (balance N2) for the indicated number of days. One-half total volume of media (see Table 1, below for the base media) was carefully pipetted from the top and replaced with fresh media every other day.
One hundred LSK Flk2^− cells were sorted from wild-type (C57Bl/6) mice and cultured in (1) media, (2) media+1 μM CHIR99021 (a GSK-3β inhibitor, a gift from Dr. Sheng Ding), (3) media+200 nM Dipotassium Bis-peroxo(picolinato)oxovanadate (BpV(pic), a PTEN inhibitor, available from Calbiochem, Cat. No. 203705), (4) media+1 μM CHIR99021+200 nM BpV(pic), (5) media+200 nM Shikonin (also a PTEN inhibitor, available from Calbiochem, Cat. No. 565850), and (6) media+200 nM Shikonin+1 μM CHIR99021. (FIGS. 3B-C). Cells were cultured as described above. Cells were examined at 17 days of culture (FIG. 3B, original magnification 100×) and 23 days (FIG. 3C, original magnification 40×).
LSK Flk2^− cells at 28 days culture in the indicated media conditions were examined (FIG. 3D, original magnification 200×).
FACS analysis of 28 day LSK Flk2^− cells cultured in media+BpV(pic)+CHIR99021 (FIG. 3E) was performed. Cells were pre-gated on live, lineage negative cells.
Fold expansion of LSK Flk2^− cells after 28 days culture in (1) media, (2) media+BpV(pic), (3) media+CHIR99021, and (4) media+CHIR99021+BpV(pic) were analyzed.
Cells cultured for 9 days in (1) media, (2) media+BpV(pic) (200 nM), (3) media+CHIR99021 (100 nM), and (4) media+CHIR99021 (100 nM)+BpV(pic) (200 nM) were re-sorted for LSK Flk2^− cells, and fold expansion of LSK Flk2^− cells after 9 days culture in the indicated conditions was determined (FIG. 3I).
FACS analysis was performed on 9 day LSK Flk2^− cells cultured in media+BpV(pic) (200 nM)+CHIR99021 (100 nM) (FIG. 3J). Cells were pre-gated on live, lineage negative cells.

[5] = tested on: lethally irradiated (10 Gy) CD45.1^+ recipient mice; experiment: Transplantation of cultured sorted LSK Flk2^− cells into lethally irradiated recipients, donor engraftment; type: in vivo, mouse; settings: 28-day cultures, 1000 re-sorted LSK Flk2^− cells + 2×10^5 competitor cells; peripheral blood 4 weeks post-transplant
Source text: Cells were harvested from the wells prior to transplantation by pipetting up and down several times before transferring to a fresh tube. Residual was then collected by adding more media and repeating. Cells were washed in DMEM (Invitrogen, Cat. No. 31053) without phenol red and added to the appropriate number of whole bone marrow rescue cells from a congenic donor (for 200,000 rescue cells+1,000 re-sorted LSK Flk2^− cells (FIGS. 3F-H) or the non-adherent product of 10 days culture of 100 LSK Flk2^− cultured cells (FIGS. 3I-K) per mouse as indicated). […]
Repopulation was measured at 4 weeks post-transplant by collection of peripheral blood, red blood cell lysis, and staining of CD45.1 (recipient) compared to CD45.2 (donor) engraftment using antibodies purchased from eBiosciences (FITC conjugated CD45.2 (Cat. No. 11-0454-85) and PE-Cy5 conjugated CD45.1 (Cat. No. 15-0453-82)). […] Multi-lineage reconstitution was determined by CD3, B220 (for lymphoid) and Gr1, Mac-1 (for myeloid), as described above.
Cells cultured for 28 days in (1) media, (2) media+BpV(pic), (3) media+CHIR99021 and (4) media+CHIR99021 (1 μM)+BpV(pic) (200 nM) were re-sorted for LSK Flk2^− cells. […] At 4 weeks post-transplant, peripheral blood was analyzed for donor (FIG. 3G) and multi-lineage (FIG. 3H) engraftment. […]

[6] = tested on: LSK Flk2^− cells; experiment: 14-day ex vivo expansion of bone marrow MNCs in ST media with or without GSK3β inhibitor, FACS; type: cell-based, mouse; settings: Tpo or SCF alone; data not shown

Compound: Nc1ncn([C@H]2C[C@H](O)[C@@H](CO)O2)c(=O)n1 [Decitabine, 5-Aza-2′-deoxycytidine]
- Human UCB-derived HSC expansion in long-term ex vivo culture [1]: human UCB-derived HSC expansion is enhanced
- Expansion of functional, primitive human HSCs in serial transplant recipients [2]: further enhanced

Compound: Cn1c(=O)n(-c2ccc(C(C)(C)C#N)cc2)c2c3cc(-c4cnc5ccccc5c4)ccc3ncc21 [NVP-BEZ235]
- Effect on the ability of CHIR99021 to enhance expansion ([3]; 10 days culture with 250 nM CHIR99021 plus PI3K inhibitor): ability of CHIR99021 to enhance expansion was negated by PI3K inhibition
- Expansion of LSK Flk2^− cells ([3]; 10 days culture, 250 nM CHIR99021, NVP-BEZ235 at indicated concentrations): decreased the ability of LSK Flk2^− cells to expand in a dose-dependent manner

Compound: CC(C)n1cnc2c(NCCc3ccc(O)cc3)nc(-c3csc4ccccc34)nc21 [SR1]
- Human UCB-derived HSC expansion in long-term ex vivo culture [1]: did not enhance overall HSC expansion in long-term cultures

Compound: Dipotassium Bis-peroxo(picolinato)oxovanadate [BpV(pic)]
- Expansion of LSK cells compared to control (photographs) ([4]; 17 and 23 days culture, 1 μM CHIR99021, 200 nM BpV(pic)): greater expansion of LSK cells
- Expansion of LSK Flk2^− cells compared to media without inhibitor ([4]; 28 days culture): significant expansion
- Mice showing >1% engraftment [5]: 0/10

Compound: SCF: recombinant Stem Cell Factor, cytokine
- HSC expansion with a single cytokine alone [6]: could not expand HSCs in culture

Compound: Tpo: recombinant Thrombopoietin, cytokine
- HSC expansion with a single cytokine alone [6]: could not expand HSCs in culture

Compound: insulin: recombinant human insulin in StemSpan media, a major stimulator of the PI3K/Akt pathway
- Dependence of phenotypic HSC expansion on medium component ([3]; ST media with or without insulin, 10 days): expansion of phenotypic HSCs is dependent on insulin
